Measurements: patent US20200020099A1, “INFORMATION PROCESSING DEVICE, INFORMATION PROCESSING SYSTEM, AND INFORMATION PROCESSING METHOD” (SONY CORPORATION, priority 2017, published 2020)

Key:
HL60 cell [1] = assay: Quantification of morphological change (area change amount, peripheral length change amount) from phase difference moving images; format: cell-based
Excerpt: An image (moving image) of an HL60 cell that had been differentiated and stimulated by adding 1% DMSO and performing culture for one week was imaged over time with a phase difference microscope under conditions that magnification of an objective lens was 60 times, an imaging interval was 27 frames/second, and imaging time was 60 seconds. FIG. 5 is an image illustrating cell boundary recognition and tracking according to Example 1. […] Thereafter, the cell boundary was tracked by matching the drawn solid line to a next image. Then, a cell area in the continuous image was tracked by repeating matching to the continuous image.
Thereafter, the area and the peripheral length were calculated from the tracked cell area, and an average of the areas, an average of the peripheral lengths, and change amounts thereof in the continuous image were calculated. Then, the change amount with respect to the average of the areas or peripheral lengths was calculated as the morphological change amount (area change amount and peripheral length change amount). This was used as Control. By a similar method, as for a case where 100 μM of a mitochondrial […] agent, carbonyl cyanide m-chlorophenylhydrazone (also simply referred to as “CCCP” here), which is a drug that inhibits intracellular metabolism, was added, the morphological change amount was calculated similarly. The upper drawing of FIG. 6 is a drawing-substituting graph illustrating an area change amount and a peripheral length change amount according to Example 1, and the lower drawing of FIG. 6 is an image illustrating cell boundary recognition and tracking in Control and in a case where CCCP is added according to Example 1.

HL60 cell [2] = assay: Motion amount of the intracellular structure (motion vector analysis) from moving images; format: cell-based; details: concentrations of 0.01 μM, 0.1 μM, 1 μM, and 10 μM, FIG. 7
Excerpt: More specifically, the analysis unit 121 extracts a motion vector between at least two imaged images having different imaging times. For example, the analysis unit 121 can extract a motion vector from a range designated by a user using a […], a gradient method, or the like. Note that the analysis unit 121 may extract a motion vector from the entire imaged image.
The length of a motion vector is a motion amount. The analysis unit 121 can calculate a motion amount (motion speed) of an intracellular structure per unit time from an interval (time) of the two imaged images from which the motion vector has been extracted. Note that in the present technology, the motion amount of the intracellular structure can be determined using an average value, a median value, a maximum value, a standard deviation, and the like of the lengths of the motion vectors.
By a similar method to Example 1 described above, the morphological change amounts (area change amounts and peripheral length change amounts) in a case where CCCP was added at concentrations of 0.01 μM, 0.1 μM, 1 μM, and 10 μM were calculated, respectively. Furthermore, a motion vector under similar conditions was calculated at an interval of about 1 μm, and a spatiotemporal average of the motion amounts (motion speeds) per unit time for each cell was calculated to create a color map. […]

[3] = 100 μM added, differentiated HL60 cell (1% DMSO, one week), vs Control, FIG. 6
[4] = concentrations of 0.01 μM, 0.1 μM, 1 μM, and 10 μM, HL60 cell, FIG. 7
[5] = 200 nM added, HL60 cell, vs Control, FIG. 10

For `N#CC(C#N)=NNc1cccc(Cl)c1` [CCCP, carbonyl cyanide m-chlorophenylhydrazone], the area change amount (HL60 cell [1]; [3]) was “significant decrease”, the “peripheral length change amount” value (HL60 cell [1]; [3]) was “significant decrease” and the area change amount (HL60 cell [1]; [4]) was “concentration-dependent decrease”. The “peripheral length change amount” value (HL60 cell [1]; [4]) was “concentration-dependent decrease” and the “motion amount (vector analysis) of the intracellular structure” value (HL60 cell [2]) was “concentration-dependent decrease”.
In the case of `C=C1[C@@H](C)[C@H]2[C@H](Cc3ccccc3)NC(=O)[C@]23[C@H](OC(C)=O)/C=C/[C@@](C)(O)C(=O)[C@@H](C)C/C=C/[C@H]3[C@@H]1O` [Cytochalasin D], the area change amount (HL60 cell [1]; [5]) is reported as “significant decrease” and the “peripheral length change amount” value (HL60 cell [1]; [5]) is reported as “significant decrease”.
